Experimental findings from patent US9062033B2, “Chemical compounds” (Rottapharm Biotech S.r.l., priority 2011, dated 2015) are described below.

The target in assay [1] is T1, human OX1 receptors (Homo sapiens, UniProt O43613).
T1 construct: expressed in transfected cells; host or cells: CHO cells
T1 sequence (O43613 1-425): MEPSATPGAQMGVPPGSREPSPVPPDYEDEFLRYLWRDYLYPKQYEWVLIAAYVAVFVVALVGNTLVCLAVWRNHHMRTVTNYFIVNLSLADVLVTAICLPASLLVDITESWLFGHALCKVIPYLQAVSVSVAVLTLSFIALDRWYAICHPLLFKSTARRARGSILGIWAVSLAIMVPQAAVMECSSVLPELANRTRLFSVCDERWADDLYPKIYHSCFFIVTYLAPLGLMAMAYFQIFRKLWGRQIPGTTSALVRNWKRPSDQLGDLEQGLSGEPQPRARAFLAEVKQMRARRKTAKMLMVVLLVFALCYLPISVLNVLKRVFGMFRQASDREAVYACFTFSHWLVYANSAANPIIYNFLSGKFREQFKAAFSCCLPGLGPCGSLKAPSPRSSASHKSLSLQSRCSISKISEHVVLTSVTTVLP
Nature of the assay: Antagonistic activity against human OX1 receptor, [Ca2+]i fluorimetry (Fluo-4NW) in transfected CHO cells activated with orexin-A. Type of assay: cell-based. Conditions: CHO cells transfected with human recombinant OX1; orexin-A 3 nM; pKb = co-logarithm of apparent dissociation constant, modified Cheng Prusoff. The method in brief: (§1)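 Fluo-4NW-loaded cells were preincubated with compound (1 nM–1 μM, 0.3% DMSO, duplicates) for 5 min at 22 °C, then stimulated with 3 nM orexin-A (OX1, CHO) or 10 nM orexin-B (OX2, HEK-293), and [Ca2+]i was read fluorimetrically. IC50 came from Hill-equation fitting, averaged over ≥2 experiments, and was converted to pKb by modified Cheng-Prusoff.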

In assay [2] the target is T2, human OX2 receptors (Homo sapiens, UniProt O43614).
T2 construct: expressed in transfected cells; host or cells: HEK-293 cells
T2 sequence (O43614 1-444): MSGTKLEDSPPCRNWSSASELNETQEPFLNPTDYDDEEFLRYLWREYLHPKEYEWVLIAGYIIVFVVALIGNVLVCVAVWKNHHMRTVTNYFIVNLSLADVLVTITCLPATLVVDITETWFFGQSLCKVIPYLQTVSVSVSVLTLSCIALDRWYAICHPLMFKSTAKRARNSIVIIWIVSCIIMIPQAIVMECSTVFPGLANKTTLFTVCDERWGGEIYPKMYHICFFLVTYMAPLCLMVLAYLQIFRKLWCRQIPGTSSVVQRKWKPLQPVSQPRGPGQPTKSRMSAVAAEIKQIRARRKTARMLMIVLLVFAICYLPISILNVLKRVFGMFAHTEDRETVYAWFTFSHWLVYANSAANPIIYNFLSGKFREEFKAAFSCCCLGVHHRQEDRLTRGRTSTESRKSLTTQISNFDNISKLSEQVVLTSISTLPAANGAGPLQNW
In words: Antagonistic activity against human OX2 receptor, [Ca2+]i fluorimetry (Fluo-4NW) in transfected HEK-293 cells activated with orexin-B. Conditions: HEK-293 cells transfected with human recombinant OX2; orexin-B 10 nM; pKb = co-logarithm of apparent dissociation constant, modified Cheng Prusoff. Type of assay: cell-based. The method in brief: as §1

Take `Cc1ccc(-c2ccc(C#N)cc2)c(C(=O)N2CC3(CC3)C[C@H]2CNc2ccc(C(F)(F)F)cn2)n1` [Compound E8, (S)-4-(6-methyl-2-(6-(((5-(trifluoromethyl)pyridin-2-yl)amino)methyl)-5-azaspiro[2.4]heptane-5-carbonyl)pyridin-3-yl)benzonitrile]: the antagonist dissociation constant (Kb) in assay [1] is 20 nM; in assay [2] it was 31.6 nM.
The matching figures for `O=C(c1c(F)cccc1-c1ncccn1)N1CC2(CC2)C[C@H]1CNc1ncc(C(F)(F)F)cc1F` [Compound 1g, (S)-(6-(((3-fluoro-5-(trifluoromethyl)pyridin-2-yl)amino)methyl)-5-azaspiro[2.4]heptan-5-yl)(2-fluoro-6-(pyrimidin-2-yl)phenyl)methanone]: 1.26 nM and 39.8 nM.
As for `CS(=O)(=O)c1ccc(-c2ccccc2)c(C(=O)N2CC3(CC3)C[C@H]2CNc2ccc(C(F)(F)F)cn2)c1` [Compound 1d, (S)-(4-(methylsulfonyl)-[1,1′-biphenyl]-2-yl)(6-(((5-(trifluoromethyl)pyridin-2-yl)amino)methyl)-5-azaspiro[2.4]heptan-5-yl)methanone], the results for the Kb in assay [1] and in assay [2] were 200 nM and 79.4 nM, respectively.

What is called Kb is the equilibrium dissociation constant of an antagonist, usually derived from a functional assay.
